The record followed here is patent EP4567034A1 (Korea Institute of Science and Technology, priority 2022, dated 2024).

Experiment [1] has as its target T1, S1P1 receptor (Homo sapiens, UniProt P21453). Kind of experiment: S1P1 receptor internalization (endosome formation) assay in S1P1 overexpressing cell line (DiscoverX), luminescence. It counts as cell-based.
Experiment [2] concerns the target T1, S1P1 receptor. The experiment is described as follows: S1P1 β-arrestin recruitment assay in S1P1 overexpressing cell line (DiscoverX), luminescence. The format is cell-based. For orientation: Activated receptors often draw arrestin, which recruitment assays turn into a signal.
In experiment [3] the test system is blood lymphocyte count. Kind of experiment: Decrease in blood lymphocyte count in normal rats after oral administration. The conditions noted are these: 10 mg/kg for the compounds, within 5 hours after drug administration, percentage based on count before administration. The format is in vivo, rat. On the procedure:
In order to confirm the effect of administration of the four compounds selected from Experimental Example 1, Compounds 13, 62, 64, and 66, on the decrease in the blood lymphocyte count in rodents in vivo, blood was collected before and after compound administration, and the decrease in the blood lymphocyte count over time was measured using an automatic blood counter, and the results are shown in FIG. 1.
Specifically, 5-week-old male rats (rat, wister, 160-180 g) were acclimated in a temperature- and humidity-controlled breeding room, and the four selected compounds were dissolved in 5% DMSO and 10% Kolliphor HS15 aqueous solution and orally administered at a dose of 10 mg/kg. Blood was collected from the tail vein with a syringe during inhalation anesthesia with 4% isoflurane and transferred to an EDTA-coated tube. The lymphocyte count was measured from the collected blood using an automatic blood counter. As a positive control group, rats administered with fingolimod, a known S1P1 receptor modulator, were used.
As in the positive control group, fingolimod-administered group, it was confirmed that the group administered with the compounds of the Examples within 5 hours after drug administration induced a decrease in the lymphocyte count by 50% or less.

A value given as a limit tells only on which side of the number the result lay.

T1 sequence (P21453 whole entry): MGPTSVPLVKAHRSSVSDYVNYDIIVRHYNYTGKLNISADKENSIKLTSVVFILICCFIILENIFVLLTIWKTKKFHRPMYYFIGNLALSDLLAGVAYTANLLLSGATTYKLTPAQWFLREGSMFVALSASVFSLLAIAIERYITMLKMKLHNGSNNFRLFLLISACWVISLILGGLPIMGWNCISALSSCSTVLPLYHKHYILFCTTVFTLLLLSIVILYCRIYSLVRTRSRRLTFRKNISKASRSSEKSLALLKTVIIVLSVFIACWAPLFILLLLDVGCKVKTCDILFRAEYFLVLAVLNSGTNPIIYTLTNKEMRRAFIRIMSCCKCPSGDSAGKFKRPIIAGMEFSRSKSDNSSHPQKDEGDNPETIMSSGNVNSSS

For the compound `COC(=O)C1CN(Cc2ccc(-c3ncc(-c4ccc(OC(C)C)c(Cl)c4)[se]3)cc2)C1` [Compound 41, Methyl 1-(4-(5-(3-chloro-4-isopropoxyphenyl)-1,3-selenazole-2-yl)benzyl)azetidine-3-carboxylate], the figures for the EC50 in experiment [1] and in experiment [2] were 9.52 nM and 0.9 nM, respectively.
For the compound `CCCCCCCCc1ccc(CCC(N)(CO)CO)cc1` [fingolimod], in experiment [3], the “decrease in the lymphocyte count” value was no more than 50%.
